In US10336701B2, “Pyridin-2-one derivatives of formula (II) useful as EP3 receptor antagonists” (Janssen Pharmaceutica NV, priority 2017, dated 2019):

Legend:
[1] = target: T1, EP3 receptor (Homo sapiens, UniProt P43115); assay: [3H]-PGE2 binding assay (EP3 competition binding); conditions: read-out: [3H]-PGE2 Binding Ki
T1 construct: purchased Millipore HTS092M
T1 sequence (P43115 1-390): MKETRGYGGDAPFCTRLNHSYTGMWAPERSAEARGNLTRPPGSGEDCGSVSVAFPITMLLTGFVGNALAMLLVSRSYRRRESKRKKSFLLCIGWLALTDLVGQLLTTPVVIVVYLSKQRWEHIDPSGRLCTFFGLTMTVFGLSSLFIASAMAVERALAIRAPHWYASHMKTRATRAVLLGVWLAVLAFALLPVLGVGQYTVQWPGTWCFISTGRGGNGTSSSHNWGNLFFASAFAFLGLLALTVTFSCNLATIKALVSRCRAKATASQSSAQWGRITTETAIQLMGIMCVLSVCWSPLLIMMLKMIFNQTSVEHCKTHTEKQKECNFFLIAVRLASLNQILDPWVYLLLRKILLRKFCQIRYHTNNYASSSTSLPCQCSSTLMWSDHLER
Outline: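 Scintillation-bead competition binding with EP3 membranes (2 μg/well), 2 nM [3H]-PGE2, 0.1% DMSO, in 50 mM Tris, 10 mM MgCl2, 1 mM EDTA, pH 7.4.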

[2] = target: T1, EP3 receptor; assay: CHO cell cAMP assay (forskolin and sulprostone stimulated, HTRF); type: cell-based; conditions: CHO cells; sulprostone 700 nM (EC80) and FSK 2 μM (EC70), 37° C. for 30 minutes; read-out: CHO_cAMP IC50
Protocol: For detection, a homogeneous competitive immunoassay (Time Resolved Fluorescence Energy Transfer (hTR-FRET)) was used.
Cells (6K cells per well) were plated in Poly-D-Lysine coated plates the day before the assay was to be run and were incubated at 37° C. […] At the start of the assay the buffer was removed from the cells and replaced with buffer containing test compound(s). Sulprostone at an EC80 dose (700 nM) and FSK at an EC70 dose (2 μM) were added to initiate the reaction (37° C. for 30 minutes).
FSK increases cAMP production and sulprostone decreases cAMP production produced by FSK. In this assay, EP3 antagonists will increase the cAMP to the level of cAMP generated by FSK alone.
Approximately one hour later the plates were read on an Envision (Perkin Elmer) in HTRF mode.
NSP, NSN, NSsample were converted to nM cAMP using the following equation: […]
IC50 values were determined from a […] (Hill equation) of a single 11-point compound dosing.

Structure (SMILES) | Ki [1] [nM] | IC50 [2] [nM]
CC(C)C(c1ccc(-c2ccc3cccc(F)c3c2)[nH]c1=O)n1cnnc1N (stereo not drawn) [compound 160, 3-(1-(3-amino-4H-1,2,4-triazol-4-yl)-2-methylpropyl)-6-(8-fluoronaphthalen-2-yl)pyridin-2(1H)-one] | 13 | 44
CCn1ncc2c(C)cc(-c3ccc(C(CC4OC(=O)NC4=O)C(C)C)c(=O)[nH]3)cc21 (stereo not drawn) [compound 126, 5-(2-(6-(1-ethyl-4-methyl-1H-indazol-6-yl)-2-oxo-1,2-dihydropyridin-3-yl)-3-methylbutyl)oxazolidine-2,4-dione] | 65 | 382
CCOC(=O)C(C1=CCCCC1)c1ccc(-c2ccc3ccccc3c2)[nH]c1=O (stereo not drawn) [Compound #280, ethyl 2-(cyclohex-1-en-1-yl)-2-(6-(naphthalen-2-yl)-2-oxo-1,2-dihydropyridin-3-yl)acetate] | 76 | 671
CCn1ncc2c(F)cc(-c3ccc(C4CCN(S(=O)(=O)C(C)C)CC4)c(=O)[nH]3)cc21 [compound 198, 6-(1-ethyl-4-fluoro-1H-indazol-6-yl)-3-(1-(isopropylsulfonyl)piperidin-4-yl)pyridin-2(1H)-one] | 19 | 530
CCn1cnc2ccc(-c3ccc(C(C=C4OC(=O)NC4=O)C(C)C)c(=O)[nH]3)c(F)c21 (stereo not drawn) [compound 91, 5-(2-(6-(3-ethyl-4-fluoro-3H-benzo[d]imidazol-5-yl)-2-oxo-1,2-dihydropyridin-3-yl)-3-methylbutylidene)oxazolidine-2,4-dione] | > 10000 | > 20000
CC(C)C(CC1OC(=O)NC1=O)c1ccc(-c2ccc3cccc(F)c3c2)[nH]c1=O (stereo not drawn) [compound 77] | 16 | 60
CCn1ncc2c(F)cc(-c3ccc(C4CCN(S(=O)(=O)C(C)C)C4)c(=O)[nH]3)cc21 (stereo not drawn) [compound 213, 6-(1-ethyl-4-fluoro-1H-indazol-6-yl)-3-(1-(isopropylsulfonyl)pyrrolidin-3-yl)pyridin-2(1H)-one] | 7 | 281
CC(C)C(C(=O)NC1CCNC1)c1ccc(-c2ccc3cccc(F)c3c2)[nH]c1=O (stereo not drawn) [compound 178, 2-(6-(8-fluoronaphthalen-2-yl)-2-oxo-1,2-dihydropyridin-3-yl)-3-methyl-N-(pyrrolidin-3-yl)butanamide] | 20 | 220
CCn1ncc2c(F)cc(-c3ccc(C(CC)(CC)c4ccon4)c(=O)[nH]3)cc21 [Compound #29, 6-(1-ethyl-4-fluoro-1H-indazol-6-yl)-3-(3-(isoxazol-3-yl)pentan-3-yl)pyridin-2(1H)-one] | 3 | 9
CCN1CCOc2c(F)cc(-c3ccc(C(CN4CCS(=O)(=O)CC4)C(C)C)c(=O)[nH]3)cc21 (stereo not drawn) [Compound #129, 4-{2-[6-(4-ethyl-8-fluoro-2,3-dihydro-1,4-benzoxazin-6-yl)-2-oxo-1H-pyridin-3-yl]-3-methylbutyl}-1,4-thiomorpholine-1,1-dione] | 6 | 149
CCN1CCOc2ccc(-c3ccc(C(CN4CCS(=O)(=O)CC4)C(C)C)c(=O)[nH]3)cc21 (stereo not drawn) [Compound #104, 3-(1-(1,1-dioxidothiomorpholino)-3-methylbutan-2-yl)-6-(4-ethyl-3,4-dihydro-2H-benzo[b][1,4]oxazin-6-yl)pyridin-2(1H)-one] | 53 | 375
CC(C)C(/C=C1\OC(=O)NC1=O)c1ccc(-c2ccc3c(ccn3C)c2)[nH]c1=O (stereo not drawn) [compound 118, (Z)-5-(3-methyl-2-(6-(1-methyl-1H-indol-5-yl)-2-oxo-1,2-dihydropyridin-3-yl)butylidene)oxazolidine-2,4-dione] | 44 | 131
CC(C)C(C(=O)NCCOCCOCCN(C)C)c1ccc(-c2ccc3cccc(F)c3c2)[nH]c1=O (stereo not drawn) [compound 229, N-(2-(2-(2-(dimethylamino)ethoxy)ethoxy)ethyl)-2-(6-(8-fluoronaphthalen-2-yl)-2-oxo-1,2-dihydropyridin-3-yl)-3-methylbutanamide] | 12 | 142
CCn1ncc2c(F)cc(-c3ccc(C4CCN(C(=O)CO)CC4)c(=O)[nH]3)cc21 [compound 197, 6-(1-ethyl-4-fluoro-1H-indazol-6-yl)-3-(1-(2-hydroxyacetyl)piperidin-4-yl)pyridin-2(1H)-one] | 169 | 967
CC(C)C(c1ccc(-c2ccc3cccc(F)c3c2)[nH]c1=O)n1ccnc1N (stereo not drawn) [Compound #162, 3-(1-(2-amino-1H-imidazol-1-yl)-2-methylpropyl)-6-(8-fluoronaphthalen-2-yl)pyridin-2(1H)-one] | 13 | 117
COc1ccc2cc(-c3ccc(C(C(=O)NCCN(C)C)C(C)C)c(=O)[nH]3)ccc2c1 (stereo not drawn) [compound 241] | 637 | 9630

Continued, values first:

Ki [1] [nM] | IC50 [2] [nM] | Structure (SMILES)
164 | 579 | CC(C)C(CC(=O)NS(=O)(=O)c1cc(Cl)c(Cl)s1)c1ccc(-c2ccc3cccc(F)c3c2)[nH]c1=O (stereo not drawn) [compound 256, N-(4,5-dichlorothiophen-2-ylsulfonyl)-3-(6-(8-fluoronaphthalen-2-yl)-2-oxo-1,2-dihydropyridin-3-yl)-4-methylpentanamide]
20 | 24 | CC(C)C(CC(=O)Nc1ncc[nH]1)c1ccc(-c2ccc3cccc(F)c3c2)[nH]c1=O (stereo not drawn) [compound 261, 3-(6-(8-fluoronaphthalen-2-yl)-2-oxo-1,2-dihydropyridin-3-yl)-N-(1H-imidazol-2-yl)-4-methylpentanamide]
2 | 6 | CONC1=NC(c2ccc(-c3ccc4cccc(F)c4c3)[nH]c2=O)(C(C)C)CN1 (stereo not drawn) [compound 292, (Z)-6-(8-fluoronaphthalen-2-yl)-3-(4-isopropyl-2-(methoxyimino)imidazolidin-4-yl)pyridin-2(1H)-one]
771 | 2400 | NC(=O)C1(c2ccc(-c3ccc4ccccc4c3)[nH]c2=O)CC=NN1 (stereo not drawn) [compound 247, 5-(6-(naphthalen-2-yl)-2-oxo-1,2-dihydropyridin-3-yl)-4,5-dihydro-1H-pyrazole-5-carboxamide]
8 | 136 | CC(C)C(CC(=O)NCCO)c1ccc(-c2ccc3cccc(F)c3c2)[nH]c1=O (stereo not drawn) [compound 258, 3-(6-(8-fluoronaphthalen-2-yl)-2-oxo-1,2-dihydropyridin-3-yl)-N-(2-hydroxyethyl)-4-methyl pentanamide]
14 | 207 | CO/N=C1\NCC(c2cc(C)c(-c3ccc4cccc(F)c4c3)[nH]c2=O)(C(C)C)N1 (stereo not drawn) [compound 293, (E)-6-(8-fluoronaphthalen-2-yl)-3-(4-isopropyl-2-(methoxyimino)imidazolidin-4-yl)-5-methylpyridin-2(1H)-one]
270 | 680 | CC(C)/C(=C1\OC(=O)NC1=O)c1ccc(-c2ccc3cccc(F)c3c2)[nH]c1=O [compound 304, (E)-5-(1-(6-(8-fluoronaphthalen-2-yl)-2-oxo-1,2-dihydropyridin-3-yl)-2-methylpropylidene)oxazolidine-2,4-dione]
108 | 336 | CC(C)C1(Cc2ccc(-c3ccc4cccc(F)c4c3)[nH]c2=O)NC(=O)NC1=O (stereo not drawn) [compound 263, 5-((6-(8-fluoronaphthalen-2-yl)-2-oxo-1,2-dihydropyridin-3-yl)methyl)-5-isopropylimidazolidine-2,4-dione]
